Measurements from the supplement of paper PMC11061612.

Key:
Capivasertib = compound: C1CN(CCC1(C(=O)N[C@@H](CCO)C2=CC=C(C=C2)Cl)N)C3=NC=NC4=C3C=CN4 [Capivasertib]; conditions: max 10 µM
Procedure, shortened: (§1)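 Cancer cell lines were plated in 1536-well plates in 7.5 μl of DMEM/F12 or RPMI with 10% FBS and kept 24 hours at 37°C and 5% CO2 before 72 hours of dosing, with final DMSO typically 0.2%. CellTiter-Glo 2.0 luminescence measured viability, scaled between blank-well and DMSO-well means. Dose responses were fitted to a two-parameter logistic curve with a non-linear mixed effects model. This fit gives the single-agent IC50.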

AZD1775 = compound: C=CCn1c(=O)c2cnc(Nc3ccc(N4CCN(C)CC4)cc3)nc2n1-c1cccc(C(C)(C)O)n1 [AZD1775]; conditions: max 3 µM
Procedure, shortened: as §1

Trametinib = compound: CC(=O)Nc1cccc(-n2c(=O)n(C3CC3)c(=O)c3c(Nc4ccc(I)cc4F)n(C)c(=O)c(C)c32)c1 [Trametinib]; conditions: max 1 µM
Procedure, shortened: as §1

Palbociclib = compound: CC(=O)c1c(C)c2cnc(Nc3ccc(N4CCNCC4)cn3)nc2n(C2CCCC2)c1=O [Palbociclib]; conditions: max 10 µM
Procedure, shortened: as §1

AZD1390 = compound: CC(C)n1c(=O)n(C)c2cnc3cc(F)c(-c4ccc(OCCCN5CCCCC5)nc4)cc3c21 [AZD1390]; conditions: max 0.3 µM
Procedure, shortened: as §1

Venetoclax = compound: CC1(C)CCC(CN2CCN(c3ccc(C(=O)NS(=O)(=O)c4ccc(NCC5CCOCC5)c([N+](=O)[O-])c4)c(Oc4cnc5[nH]ccc5c4)c3)CC2)=C(c2ccc(Cl)cc2)C1 [Venetoclax]; conditions: max 1 µM
Procedure, shortened: as §1

Dasatinib = compound: CC1=C(C(=CC=C1)Cl)NC(=O)C2=CN=C(S2)NC3=CC(=NC(=N3)C)N4CCN(CC4)CCO [Dasatinib]; conditions: max 2 µM
Procedure, shortened: as §1

SG3199 = compound: CC1=CN2[C@@H](C1)C=NC3=CC(=C(C=C3C2=O)OC)OCCCCCOC4=C(C=C5C(=C4)N=C[C@@H]6CC(=CN6C5=O)C)OC [SG3199]; conditions: max 0.001 µM
Procedure, shortened: as §1

AZD2811 = compound: CCN(CCO)CCCOc1ccc2c(Nc3cc(CC(=O)Nc4cccc(F)c4)[nH]n3)ncnc2c1 [AZD2811]; conditions: max 1 µM
Procedure, shortened: as §1

SN-38 = compound: CCc1c2c(nc3ccc(O)cc13)-c1cc3c(c(=O)n1C2)COC(=O)[C@]3(O)CC [SN-38]; conditions: max 0.3 µM
Procedure, shortened: as §1

AZD0156 = compound: CN(C)CCCOc1ccc(-c2ccc3ncc4c(c3c2)n(C2CCOCC2)c(=O)n4C)cn1 [AZD0156]; conditions: max 3 µM
Procedure, shortened: as §1

AZD4320 = compound: CN(CC[C@H](CSC1=CC=CC=C1)NC2=C(C=C(C=C2)S(=O)(=O)NC(=O)C3=CC=C(C=C3)N4CCC(CC4)[C@H](C5=CC=CC=C5C6=CC=C(C=C6)Cl)O)S(=O)(=O)C(F)(F)F)CCO [AZD4320]; conditions: max 1 µM
Procedure, shortened: as §1

Alisertib = compound: COc1cc(Nc2ncc3c(n2)-c2ccc(Cl)cc2C(c2c(F)cccc2OC)=NC3)ccc1C(=O)O [Alisertib]; conditions: max 10 µM
Procedure, shortened: as §1

Gefitinib = compound: COc1cc2ncnc(Nc3ccc(F)c(Cl)c3)c2cc1OCCCN1CCOCC1 [Gefitinib]; conditions: max 10 µM
Procedure, shortened: as §1

Prexasertib = compound: COc1cccc(OCCCN)c1-c1cc(Nc2cnc(C#N)cn2)n[nH]1 [Prexasertib]; conditions: max 1 µM
Procedure, shortened: as §1

Doxorubicin = compound: COc1cccc2c1C(=O)c1c(O)c3c(c(O)c1C2=O)C[C@@](O)(C(=O)CO)C[C@@H]3O[C@H]1C[C@H](N)[C@H](O)[C@H](C)O1 [Doxorubicin]; conditions: max 1 µM
Procedure, shortened: as §1

AZD5153 = compound: COc1nnc2ccc(N3CCC(c4ccc(OCCN5CCN(C)C(=O)[C@H]5C)cc4)CC3)nn12 [AZD5153]; conditions: max 1 µM
Procedure, shortened: as §1

Lapatinib = compound: CS(=O)(=O)CCNCc1ccc(-c2ccc3ncnc(Nc4ccc(OCc5cccc(F)c5)c(Cl)c4)c3c2)o1 [Lapatinib]; conditions: max 10 µM
Procedure, shortened: as §1

AZD8186 = compound: C[C@@H](Nc1cc(F)cc(F)c1)c1cc(C(=O)N(C)C)cc2c(=O)cc(N3CCOCC3)oc12 [AZD8186]
Procedure, shortened: as §1

Crizotinib = compound: C[C@@H](Oc1cc(-c2cnn(C3CCNCC3)c2)cnc1N)c1c(Cl)ccc(F)c1Cl [Crizotinib]; conditions: max 10 µM
Procedure, shortened: as §1

Savolitinib = compound: C[C@@H](c1ccc2nccn2c1)n1nnc2ncc(-c3cnn(C)c3)nc21 [Savolitinib]; conditions: max 1 µM
Procedure, shortened: as §1

AZD6738 = compound: C[C@@H]1COCCN1C2=NC(=NC(=C2)C3(CC3)[S@](=N)(=O)C)C4=C5C=CNC5=NC=C4 [AZD6738]; conditions: max 10 µM
Procedure, shortened: as §1

AZD5991 = compound: Cc1c2c(nn1C)CSCc1cc(n(C)n1)CSc1cc(c3ccccc3c1)OCCCc1c(C(=O)O)n(C)c3c-2c(Cl)ccc13 [AZD5991]; conditions: max 1 µM
Procedure, shortened: as §1

AZD7648 = compound: Cc1cc2ncnn2cc1Nc1ncc2c(n1)n(C1CCOCC1)c(=O)n2C [AZD7648]; conditions: max 10 µM
Procedure, shortened: as §1

Taselisib = compound: Cc1nc(-c2cn3c(n2)-c2ccc(-c4cnn(C(C)(C)C(N)=O)c4)cc2OCC3)n(C(C)C)n1 [Taselisib]; conditions: max 10 µM
Procedure, shortened: as §1

Selumetinib = compound: Cn1cnc2c(F)c(Nc3ccc(Br)cc3Cl)c(C(=O)NOCCO)cc21 [Selumetinib]; conditions: max 10 µM
Procedure, shortened: as §1

Olaparib = compound: O=C(c1cc(Cc2n[nH]c(=O)c3ccccc23)ccc1F)N1CCN(C(=O)C2CC2)CC1 [Olaparib]; conditions: max 10 µM
Procedure, shortened: as §1

Carboplatin = compound: C1CC(C1)(C(=O)[O-])C(=O)[O-].N.N.[Pt+2] [Carboplatin]; conditions: max 10 µM
Procedure, shortened: as §1

AZD5363 = compound: C1CN(CCC1(C(=O)N[C@@H](CCO)C2=CC=C(C=C2)Cl)N)C3=NC=NC4=C3C=CN4 [AZD5363]; conditions: max 10 µM
Procedure, shortened: as §1

Paclitaxel = compound: CC(=O)O[C@H]1C(=O)[C@@]2(C)[C@H]([C@H](OC(=O)c3ccccc3)[C@]3(O)C[C@H](OC(=O)[C@H](O)[C@@H](NC(=O)c4ccccc4)c4ccccc4)C(C)=C1C3(C)C)[C@]1(OC(C)=O)CO[C@@H]1C[C@@H]2O [Paclitaxel]; conditions: max 3 µM
Procedure, shortened: as §1

Etoposide = compound: COc1cc([C@@H]2c3cc4c(cc3[C@@H](O[C@@H]3O[C@@H]5CO[C@@H](C)O[C@H]5[C@H](O)[C@H]3O)[C@H]3COC(=O)[C@H]23)OCO4)cc(OC)c1O [Etoposide]; conditions: max 10 µM
Procedure, shortened: as §1

SRA737 = compound: N#Cc1cnc(Nc2cc(NC[C@H]3CNCCO3)c(C(F)(F)F)cn2)cn1 [SRA737]; conditions: max 10 µM
Procedure, shortened: as §1

MK-2206 = compound: NC1(c2ccc(-c3nc4ccn5c(=O)[nH]nc5c4cc3-c3ccccc3)cc2)CCC1 [MK-2206]; conditions: max 10 µM
Procedure, shortened: as §1

Gemcitabine = compound: Nc1ccn([C@@H]2O[C@H](CO)[C@@H](O)C2(F)F)c(=O)n1 [Gemcitabine]; conditions: max 0.3 µM
Procedure, shortened: as §1

[1] = compound: O=C(Nc1ccc2[nH]nc(-c3ccncc3)c2c1)[C@@H]1CCN(CC(=O)N2CCN(c3ccc(-c4ncccn4)cc3)CC2)C1; conditions: max 5 µM
Procedure, shortened: as §1

5-Fluorouracil = compound: O=c1[nH]cc(F)c(=O)[nH]1 [5-Fluorouracil]; conditions: max 20 µM
Procedure, shortened: as §1

Cell Line	IC50, cell viability 72 h (Capivasertib)	IC50, cell viability 72 h (AZD1775)	IC50, cell viability 72 h (Trametinib)	IC50, cell viability 72 h (Palbociclib)	IC50, cell viability 72 h (AZD1390)	IC50, cell viability 72 h (Venetoclax)	IC50, cell viability 72 h (Dasatinib)	IC50, cell viability 72 h (SG3199)	IC50, cell viability 72 h (AZD2811)	IC50, cell viability 72 h (SN-38)	IC50, cell viability 72 h (AZD0156)	IC50, cell viability 72 h (AZD4320)	IC50, cell viability 72 h (Alisertib)	IC50, cell viability 72 h (Gefitinib)	IC50, cell viability 72 h (Prexasertib)	IC50, cell viability 72 h (Doxorubicin)	IC50, cell viability 72 h (AZD5153)	IC50, cell viability 72 h (Lapatinib)	IC50, cell viability 72 h (AZD8186; max 3 µM)	IC50, cell viability 72 h (Crizotinib)	IC50, cell viability 72 h (Savolitinib)	IC50, cell viability 72 h (AZD6738)	IC50, cell viability 72 h (AZD5991)	IC50, cell viability 72 h (AZD7648)	IC50, cell viability 72 h (Taselisib)	IC50, cell viability 72 h (Selumetinib)	IC50, cell viability 72 h (Olaparib)	IC50, cell viability 72 h (Carboplatin)	IC50, cell viability 72 h (AZD5363)	IC50, cell viability 72 h (Paclitaxel)	IC50, cell viability 72 h (Etoposide)	IC50, cell viability 72 h (AZD8186; max 10 µM)	IC50, cell viability 72 h (SRA737)	IC50, cell viability 72 h (MK-2206)	IC50, cell viability 72 h (Gemcitabine)	IC50, cell viability 72 h [1]	IC50, cell viability 72 h (5-Fluorouracil)
NCI-H1975 (Lung Adenocarcinoma)	3.84 µM	1.62 µM	> 1 µM	> 10 µM	> 0.3 µM	> 1 µM	1.01 µM	> 0.001 µM	> 1 µM	> 0.3 µM	> 3 µM	> 1 µM	> 10 µM	> 10 µM	> 1 µM	0.497 µM	0.359 µM	> 10 µM	> 3 µM	> 10 µM	> 1 µM	> 10 µM	> 1 µM	> 10 µM	1.22 µM	> 10 µM	> 10 µM										
TOV-21G (Ovarian Carcinoma)	1.55 µM	0.754 µM	> 1 µM	> 10 µM	> 0.3 µM	> 1 µM	0.139 µM	> 0.001 µM	> 1 µM	0.148 µM	> 3 µM	> 1 µM	2.95 µM	> 10 µM	0.299 µM	> 1 µM	0.334 µM	> 10 µM	> 3 µM	9.3 µM	> 1 µM	3.65 µM	> 1 µM	> 10 µM	6.23 µM	> 10 µM	> 10 µM										
NCI-H835 (Other Solid Carcinomas)		1.1 µM	> 1 µM	> 10 µM	> 0.3 µM	> 1 µM	> 2 µM	> 0.001 µM	> 1 µM	> 0.3 µM	> 3 µM	0.218 µM		> 10 µM	> 1 µM	> 1 µM	> 1 µM	> 10 µM		9.99 µM	> 1 µM	> 10 µM	> 1 µM	> 10 µM	5.25 µM	> 10 µM	> 10 µM	> 10 µM	> 10 µM	2.77 µM	> 10 µM	> 10 µM	> 10 µM	> 10 µM	> 0.3 µM	> 5 µM	> 20 µM
JJN-3 (Plasma Cell Myeloma)	> 10 µM	0.654 µM	> 1 µM	> 10 µM	> 0.3 µM	> 1 µM	> 2 µM	> 0.001 µM	> 1 µM	0.163 µM	> 3 µM	0.866 µM	> 10 µM	> 10 µM	0.0274 µM	0.994 µM	0.0476 µM	> 10 µM	> 3 µM	> 10 µM	> 1 µM	5.74 µM	0.0495 µM	> 10 µM	> 10 µM	> 10 µM	> 10 µM							> 10 µM			
C2BBe1 (Colorectal Carcinoma)	> 10 µM	2.7 µM	0.818 µM	> 10 µM	> 0.3 µM	> 1 µM	> 2 µM	> 0.001 µM	> 1 µM	> 0.3 µM	> 3 µM	> 1 µM	> 10 µM	> 10 µM	> 1 µM	> 1 µM	> 1 µM	> 10 µM	> 3 µM	> 10 µM	> 1 µM	> 10 µM	> 1 µM	> 10 µM	2.99 µM	> 10 µM	> 10 µM										
SNU-1 (Gastric Carcinoma)	> 10 µM	1.35 µM	0.757 µM	> 10 µM	> 0.3 µM	> 1 µM	> 2 µM	> 0.001 µM	> 1 µM	0.0129 µM	> 3 µM	> 1 µM	> 10 µM	> 10 µM	0.0971 µM	0.237 µM	0.265 µM	> 10 µM	> 3 µM	> 10 µM	> 1 µM	5.01 µM	0.938 µM	> 10 µM	9.03 µM	> 10 µM	> 10 µM										
